Consider 2 molecules from patent US11072596B2, “Poly(ADP-ribose) polymerase inhibitor, preparation method and use” (SELECTION BIOSCIENCE LLC, priority 2017, dated 2021).

The term AUC denotes concentration integrated over time. What is called MRT is a mean duration of stay, worked out from the concentration-time curve. The IC50 is the concentration at which inhibition is half-maximal. For orientation: Cmax means the maximum level reached in the sampled fluid or tissue.

One data set is described as follows: in vivo. On the procedure: SD rats were used as test animals, and the drug concentrations in plasma at different times after intravenous and intragastric administration of the compounds of examples were determined by LC/MS/MS method(s) to study the pharmacokinetics of the compound in the present disclosure in rats
Healthy adult male SD (Sprague-Dawley) rats, 3 animals per test compound, 6-9 weeks old, weighing 250±50 g, were purchased from Shanghai SLAC Laboratory Animal Co., Ltd.
The appropriate amount of sample was weighed out, 0.5% Methocel/2% tween 80 was added to the final volume, and 2 mg/mL was prepared for intragastric administration.
Each 3 male SD rats of each test compound were taken by intragastric administration at a dosage of 10 mg/kg after fasting overnight.
Blood samples of each animal were collected at different time points 0.083-24 h from jugular vein puncture after administration, K2-EDTA anticoagulation, centrifugation, and blood plasma were collected, frozen at −70° C. until LC/MS/MS analysis.

Data set [1] can be described thus: Liver microsomal stability in vitro, cynomolgus monkey. Particulars: for half-life at 1 μM: pH 7.4, cynomolgus monkey liver microsomes 0.5 mg protein/mL, 1 μM test compound, 37° C., read-out: Cynomolgus monkey T1/2. The format is in vitro ADME. How it is done: (§1) Evaluation of in vitro liver microsomal stability of the compound of the present disclosure was tested by the following method:
(§2) Buffer: 100 mM potassium phosphate buffer, pH 7.4; […] MgCl2.
(§3) Liver microsomes: human liver microsomes, Corning Cat No. 452117; Rat liver microsomes, Xenotech Cat No. R1000; Mouse liver microsomes, Xenotech Cat No. M1000; Dog liver microsomes, Xenotech Cat No. D1000; Liver microsomes of cynomolgus monkey, Corning Cat No. 452413, the final concentration was 0.5 mg protein/mL.
(§4) 1. Intermediate solution: 5 μL of compound or control in stock solution (10 mM) was diluted with 495 μL of methanol (concentration: 100 μM, 99% MeOH).
(§5) 2. Operating solution: the intermediate solution was diluted […] with 450 μL 100 mM potassium phosphate buffer (concentration: 10 μM, 9.9% MeOH).
(§6) 1. 10 μL of compound or control solution per well was added to all plates (T0, T5, T10, T20, T30, T60, NCF60) except matrix blank.
(§7) 2. Microsome solution was distributed to 96-well plates according to platemap for standby, 680 μL per well, and the mixture of microsome solution and the compound was incubated at 37° C. for about 10 minutes.
(§8) 4. After preheating, NADPH regeneration system was distributed to 96-well plate, 90 μL per well, for standby according to plate map, which was added to each plate to start the reaction, 10 μL per well. The final concentration of each component in the incubation medium includes: 0.5 mg protein/mL microsome, 1 μM test compound, […], 0.99% methanol and 0.01% DMSO.
(§9) 6. The above-prepared stop solution (4° C. cooling) was added to stop the reaction, 300 μL per well.
(§10) 9. During centrifugation, eight new 96-well plates were loaded with 300 μL of HPLC water, and then 100 μL of supernatant was transferred for mixing, followed by LC/MS/MS detection.
(§11) 10. Data analysis: The peak area of the corresponding compound and internal standard was detected by LC-MS/MS, and the T1/2 of the compound was calculated by the following formula: […]

Data set [2] in a line: Liver microsomal stability in vitro, human. The format is in vitro ADME. Particulars: for half-life at 1 μM: pH 7.4, human liver microsomes 0.5 mg protein/mL, 1 μM test compound, 37° C., read-out: Human T1/2. On the procedure: as §1, §2, §3, §4, §5, §6, §7, §8, §9, §10, §11
For orientation: Microsomes from liver hold many membrane-bound enzymes, among them those of drug oxidation.

The target in another data set is T1, CYP1A2 (Homo sapiens, UniProt P05177).
T1 construct: from tissue; host or cells: human liver microsomes (HLM)
T1 sequence (P05177 1-516): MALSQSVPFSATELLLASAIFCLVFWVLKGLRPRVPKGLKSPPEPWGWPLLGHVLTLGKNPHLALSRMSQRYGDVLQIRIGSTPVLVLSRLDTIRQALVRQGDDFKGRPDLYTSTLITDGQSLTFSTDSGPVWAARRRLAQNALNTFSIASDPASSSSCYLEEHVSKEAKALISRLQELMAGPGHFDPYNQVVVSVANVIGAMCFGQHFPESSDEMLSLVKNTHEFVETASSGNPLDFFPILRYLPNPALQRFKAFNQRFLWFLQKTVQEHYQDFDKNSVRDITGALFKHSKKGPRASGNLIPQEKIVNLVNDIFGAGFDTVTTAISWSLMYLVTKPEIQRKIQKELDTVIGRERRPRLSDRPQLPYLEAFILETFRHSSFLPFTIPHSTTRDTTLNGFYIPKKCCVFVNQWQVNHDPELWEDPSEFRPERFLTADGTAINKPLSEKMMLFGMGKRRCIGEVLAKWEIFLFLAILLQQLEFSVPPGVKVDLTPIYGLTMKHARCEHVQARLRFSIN
In words: Inhibition of human liver microsomal CYP450 enzymes, CYP1A2. The format is in vitro ADME. Particulars: human liver microsomes, substrate Phenacetin 30 μM; Reference = α-naphthoflavone; read-out: IC50 1A2. On the procedure:
(§12) The inhibitory effects of the compound of the present disclosure on the CYP450 enzymes of six human subtypes were determined by the following experimental method:
(§13) Reference compounds of each subtype: CYP1A2: α-naphthoflavone; CYP2C9: sulfaphenazole; CYP2C19: omeprazole; CYP3A4: ketoconazole; CYP2D6: quinidine.
(§14) Substrate concentration: CYP1A2: Phenacetin at 30 μM; CYP2C9: Diclofenac at 10 μM; CYP2C19: S-Mephenytoin at 35 μM; CYP3A4: Midazolam at 5 μM and Testosterone at 80 μM; CYP2D6: Bufuralol at 10 μM.
(§15) 6. 0.2 mg/mL of HLM was added to the test wells, 400 μL per well, and then the gradient diluted 400× test compound was added to the corresponding wells.
(§16) 7. 0.2 mg/mL of HLM was added to the test wells, 200 μL per well, and then the gradient-diluted reference inhibitor was added to the corresponding wells. Steps 6 and 7 needed to be performed on ice.
(§17) 8.1. 30 μL of test compound and reference compound were mixed in 0.2 mg/mL of HLM solution (see steps 6 and 7).
(§18) 8.2. 15 μL of 4× substrate solution (see step 4) was added.
(§19) 10. Preheated 8 mM of NADPH solution was added to the 96-well test plate (see step 3) to initiate the reaction, 15 μL per well.
(§20) 11. The test plate was incubated at 37° C.: 3A4 for 5 minutes, each of 1A2, 2C9 and 2D6 for 10 minutes, and 2C19 for 45 minutes.
(§21) 12. ACN containing internal reference was added to stop the reaction, 120 μL per well.
14. […]

In another data set the target is T2, CYP2C19 (Homo sapiens, UniProt P33261).
T2 construct: from tissue; host or cells: human liver microsomes (HLM)
In words: Inhibition of human liver microsomal CYP450 enzymes, CYP2C19. It is filed as in vitro ADME. To be noted: human liver microsomes, substrate S-Mephenytoin 35 μM; Reference = omeprazole; read-out: IC50 2C19. On the procedure:
as §12, §13, §14, §15, §16, §17, §18, §19, §20, §21
14. […]

[3] abbreviates: male, Sprague-Dawley, rat, in vivo, po, 10 mg/kg.
The mark [4] stands for this setting: SD rats, table head: Dose PO (10 mg/kg).
Setting [5] is: male, Sprague-Dawley, rat, plasma, po, 10 mg/kg, SD rats, PO 10 mg/kg.

Each structure is given as a SMILES string.

T2 sequence (P33261 whole entry): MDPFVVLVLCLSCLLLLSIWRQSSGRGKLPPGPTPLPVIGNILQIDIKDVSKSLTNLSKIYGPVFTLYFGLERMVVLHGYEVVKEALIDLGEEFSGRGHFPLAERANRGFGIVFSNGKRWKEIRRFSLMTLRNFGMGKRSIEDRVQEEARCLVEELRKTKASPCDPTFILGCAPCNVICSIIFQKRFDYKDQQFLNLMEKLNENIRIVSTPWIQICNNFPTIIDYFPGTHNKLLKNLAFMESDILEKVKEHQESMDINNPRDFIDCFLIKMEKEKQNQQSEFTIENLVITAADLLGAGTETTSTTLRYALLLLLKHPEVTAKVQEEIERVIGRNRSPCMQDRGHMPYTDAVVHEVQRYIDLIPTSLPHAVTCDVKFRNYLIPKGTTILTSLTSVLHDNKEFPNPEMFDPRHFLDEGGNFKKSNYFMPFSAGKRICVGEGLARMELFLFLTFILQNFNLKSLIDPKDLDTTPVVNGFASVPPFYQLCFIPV

In the data set “in vivo” (setting [3]), `NC(=O)c1cccc2cn(-c3ccc([C@]4(F)CCCNC4)cc3)nc12` (single isomer, unassigned) [Example 23, (R or S)-2-(4-(3-fluoropiperidin-3-yl)phenyl)-2H-indazole-7-carboxamide] came in with an F of 49.7%, a T1/2 of 16.0 h, an AUC of 3060 ng·h/mL and an MRT of 7.12 h. The “metabolic stability in cynomolgus monkey liver microsomes, in words” value in data set [1] (cynomolgus monkey liver microsomes) is reported as “excellent metabolic stability”. In data set [1], the half-life at 1 μM is 1.03 h. Moreover, the “metabolic stability in human liver microsomes, in words” value in data set [2] (human liver microsomes) is “excellent metabolic stability”. Further, the half-life at 1 μM in data set [2] is greater than 2.42 h. For the same molecule, on CYP1A2, the IC50 was greater than 10 µM. In addition, the IC50 at CYP2C19 is greater than 10 µM.

Regarding `NC(=O)c1cccc2cn(-c3ccc([C@@H]4CCCNC4)cc3)nc12` [Niraparib, reference compound], in the data set “in vivo” (SD rats, PO 10 mg/kg), the F was 65.0%. The CL in the data set “in vivo” (setting [4]) stood at 28.7 mL/min/kg. This molecule displayed a Vdss in the data set “in vivo” (setting [4]) of 8.18 L/kg. In the data set “in vivo” (setting [5]), this molecule had an AUC of 4540 ng·h/mL. The Cmax in the data set “in vivo” (male, Sprague-Dawley, rat, plasma, po, 10 mg/kg, Cmax, SD rats, PO 10 mg/kg) is 509 ng/mL. Also, the MRT in the data set “in vivo” (setting [5]) is 8.59 h. Moreover, the half-life in “in vivo” (male, Sprague-Dawley, rat, plasma, po, 10 mg/kg, T1/2, SD rats, PO 10 mg/kg) is 3.4 h. In addition, the half-life at 1 μM is 0.967 h in data set [1] and greater than 2.42 h in data set [2]. For the same molecule, the IC50 on CYP1A2 and on CYP2C19 was greater than 10 µM throughout.
